Laboratory results taken from PMC4240039, “Interactions of ABCG2 (BCRP) with epidermal growth factor receptor kinase inhibitors developed for molecular imaging” (Frontiers in Pharmacology, 2014).

How the values were obtained:
BCRP = biological target: T1, BCRP (Homo sapiens, UniProt Q9UNQ0); experiment: BODIPY-prazosin accumulation assay in MDCK-BCRP cells; type: cell-based; conditions: 500 nM BODIPY-prazosin, 1 h incubation; test compounds 400 nM
T1 construct: expressed in transfected cells; host or cells: MDCK (MDCKII) cells, pcDNA3 vector; gift from Prof; Qingcheng Mao
T1 sequence (Q9UNQ0 1-655): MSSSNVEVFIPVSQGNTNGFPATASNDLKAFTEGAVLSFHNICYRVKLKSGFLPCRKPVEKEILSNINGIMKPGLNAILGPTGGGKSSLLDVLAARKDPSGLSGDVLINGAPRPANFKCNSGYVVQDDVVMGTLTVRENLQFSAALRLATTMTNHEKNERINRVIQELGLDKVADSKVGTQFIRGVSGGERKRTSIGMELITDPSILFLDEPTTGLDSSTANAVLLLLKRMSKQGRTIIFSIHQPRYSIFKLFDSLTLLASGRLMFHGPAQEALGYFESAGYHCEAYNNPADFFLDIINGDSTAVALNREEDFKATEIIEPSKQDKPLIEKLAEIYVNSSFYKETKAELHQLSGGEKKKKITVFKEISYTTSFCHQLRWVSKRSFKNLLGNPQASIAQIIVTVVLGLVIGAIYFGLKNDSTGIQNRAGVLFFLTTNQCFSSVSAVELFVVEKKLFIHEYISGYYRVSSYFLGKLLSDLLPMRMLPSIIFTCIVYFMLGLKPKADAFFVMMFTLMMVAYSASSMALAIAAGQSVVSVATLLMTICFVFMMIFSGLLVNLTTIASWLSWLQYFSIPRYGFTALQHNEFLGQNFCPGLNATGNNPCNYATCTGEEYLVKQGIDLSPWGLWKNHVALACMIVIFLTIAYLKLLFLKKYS
Procedure: Accumulation assays with fluorescent substrates of eﬄux transporter are commonly utilized to determine the inhibitory effect of a test compound ([Brouwer et al., 2013]). In this study, MDCK-CT and MDCK-BCRP cells were seeded at density of 20 × 10^4 cells/well in 24 well plates. Experiments were performed two days after achieving 100% confluent monolayers. Prior to the experiment, the medium was removed and cells were incubated for 1 h with one of the test compounds dissolved in DMEM with 5 mM 4-(2-Hydroxyethyl)-1-piperazineethanesulfonic acid (HEPES), pH 7.4. In the accumulation phase cells were co-incubated with 500 nM BODIPY-prazosin (a BCRP/P-gp substrate; [Dey et al., 1997]; [Ni et al., 2010]) and one of the test compounds dissolved in DMEM with 5 mM HEPES. After 1 h, the cells were washed three times with ice-cold PBS. Intracellular fluorescence intensity of BODIPY-prazosin was measured within 1 h by a plate reader (Synergy HT, BioTek, Winooski, VT, USA) with excitation wavelength 485 nm and emission wavelength 528 nm.
FIGURE 4 Effect of EGFRIs on BODIPY-prazosin accumulation. Cell protein concentration-normalized BODIPY prazosin fluorescence in MDCK-BCRP cells were evaluated in the presence and the absence of 400 nM of the tested compounds following 1 h incubation.

human BCRP ATPase = biological target: T2, human BCRP ATPase (Homo sapiens, UniProt Q9UNQ0); experiment: BCRP ATPase activation assay ([…] kit, Sf9 membrane preparations); type: biochemical; conditions: for Activation of BCRP ATPase: 400 nM (submicromolar), Sf9 membranes containing BCRP, vanadate-sensitive ATPase activity; for BCRP ATPase activation relative to that produced by gefitinib: 400 nM, Sf9 membranes
T2 construct: purchased SOLVO Biotechnology, Szeged, Hungary; host or cells: Sf9 membrane preparations
T2 sequence (Q9UNQ0 1-655): T1 sequence (Q9UNQ0 1-655)
Procedure: ATPase activity was evaluated using […] kits (SOLVO Biotechnology, Szeged, Hungary), according to the manufacturer’s instructions.
FIGURE 2 Interactions of EGFRIs with BCRP ATPase. (A) Activation of BCRP-ATPase in Sf9 membrane preparations containing BCRP. Membranes were incubated with ATP and the tested compounds at 400 nM in the presence and absence of sodium orthovanadate. (B) Inhibition of sulfasalazine-stimulated BCRP-ATPase. The effect of EGFRIs was evaluated in sulfasalazine (10 μM)-stimulated membranes. Data are presented as means ± SD of the vanadate-sensitive ATPase activity from two experiments in duplicates.

P-gp = tested on: P-gp; set-up: method as in Abourbeh et al., 2007; conditions: ref Abourbeh et al., 2007; cited from earlier work
[1] = set-up: method as in Dissoki et al., 2007; conditions: ref Dissoki et al., 2007; cited from earlier work
[2] = MTT cell proliferation assay, BCRP-overexpressing cells; type: cell-based, canine; conditions: dog, MDCK-BCRP cells (MDCK cells transfected with wild-type BCRP), read-out: IC50 for inhibition of cell proliferation in MDCK-BCRP cells
Procedure: (§1) Madin-Darbey canine kidney (MDCK) cells transfected with pcDNA empty vector (MDCK-pcDNA3; MDCK-CT) and cDNA coding for wild-type BCRP (MDCK-BCRP) cells were a generous gift from Prof. Qingcheng Mao (University of Washington, Seattle, WA, USA). The human lung carcinoma cell lines A549 and HCC827 cells were provided by Prof. Eyal Mishani.
Madin-Darbey canine kidney vector (MDCK-pcDNA3) and MDCK-BCRP cells were grown in Eagle’s minimum essential medium (MEM) supplemented with 10% fetal bovine serum, 2 mM L-glutamine, 100 units/mL penicillin, and 100 μg/mL streptomycin, at 37∘C and 5% CO2-humidified incubator. The BCRP positive cells were selected by supplementation of 0.05 mg/mL gentamicin to the growth medium. The adherent cells, continuously cultivated in 10 cm^2 cell culture plates, were grown to nearly 80–90% confluence before they were harvested by trypsin-EDTA 0.25% solution. A549 were grown in Ham’s F12 growth medium and HCC827 were grown in RPMI-1640 growth medium. The cells were treated as described above.
(§2) The assay was performed as described earlier ([Rajendra et al., 2003]) with minor modifications. Briefly, Cells were seeded at density of 80 × 10^3 cells per well in 24 well plates. On the following day, the cells were incubated (in hexaplicates) with 0.2–102.4 μM of the tested EGFRIs or with the vehicle in the growth medium for 72 h. Then, the medium was removed and 300 μl of 0.5 mg/mL MTT solution in Hank’s Balanced Salt Solution (HBSS) was added to each well. After 2 h incubation at 37∘C, the MTT solution was removed and the cells were washed three times with HBSS, then the culture plates were incubated with 500 μl dimethyl sulphoxide (DMSO) for 15 min at room temperature. The absorption was detected at 540 nm using the Synergy plate reader. The proliferation of cells from MTT studies was expressed as a percent of control, DMSO-treated cells of the same type. An inhibitory sigmoidal model was fitted to the experimental data using Phoenix WinNonlin 6.3 (Pharsight, Mountain View, CA, USA).

MDCK-CT cells = experiment: MTT cell proliferation assay, vector control cells; type: cell-based, canine; conditions: Canis lupus familiaris, 72 h, read-out: IC50 for inhibition of control cell proliferation
Procedure: as §1
Madin-Darbey canine kidney vector (MDCK-pcDNA3) and MDCK-BCRP cells were grown in Eagle’s minimum essential medium (MEM) supplemented with 10% fetal bovine serum, 2 mM L-glutamine, 100 units/mL penicillin, and 100 μg/mL streptomycin, at 37∘C and 5% CO2-humidified incubator. The BCRP positive cells were selected by supplementation of 0.05 mg/mL gentamicin to the growth medium. […] The cells were treated as described above.
as §2, with “Briefly,” for “The assay was performed as described earlier ([Rajendra et al., 2003]) with minor modifications. Briefly,”, “On the following day, the cells were incubated (in hexaplicates) with 0.2–102.4 μM of the tested EGFRIs or with the vehicle in the growth medium for 72 h.” left out

EGFR = tested on: EGFR; set-up: method as in earlier work; conditions: A431 cell lysates; ref Shaul et al., 2004; Mishani et al., 2005; Dissoki et al., 2007; read-out: EGFR binding potency IC50; cited from earlier work

| Activation of BCRP ATPase (human BCRP ATPase) | BCRP ATPase activation relative to that produced by gefitinib (human BCRP ATPase) [%] | Compound | BODIPY-prazosin accumulation in MDCK-BCRP cells (BCRP) | P-gp substrate status (P-gp) | Log P [1] | IC50 at 72 h [2] [nM] | IC50 (MDCK-CT cells) [nM] | IC50 (EGFR) [nM] |
| --- | --- | --- | --- | --- | --- | --- | --- | --- |
| – | – | COc1ccc2c3c([nH]c2c1)[C@H](C=C(C)C)N1C(=O)[C@@H]2CCCN2C(=O)[C@@H]1C3 [FTC, fumitremorgin C] | significantly (p < 0.01) enhanced | – | – | – | – | – |
| activated BCRP ATPase | – | CN(C)C/C=C/C(=O)Nc1ccc2ncnc(Nc3cc(Cl)c(Cl)cc3F)c2c1 [ML04] | – | found to be a P-gp substrate | 3.9 | > 50000 | 2100 ± 600 | – |
| activated BCRP ATPase | ≤ 40 | O=C(CCl)Nc1ccc2ncnc(Nc3cc(Cl)c(Cl)cc3F)c2c1 [ML05] | – | – | 4.12 | – | – | 10 |
| activated BCRP ATPase | ≤ 40 | CN(C)C/C=C/C(=O)Nc1ccc2ncnc(Nc3cccc(I)c3)c2c1 [ML06] | – | – | – | > 50000 | 2200 ± 700 | 0.05 to 5 |
| no activating effect | – | O=C(/C=C/CN(CCO)CCO)Nc1cc2c(Nc3cc(Cl)c(Cl)cc3F)ncnc2cc1OCCOCCOCCOCCF [ML10] | – | – | – | – | – | – |
| no activating effect | – | O=C(CCl)Nc1cc2c(Nc3cc(Cl)c(Cl)cc3F)ncnc2cc1OCCOCCOCCOCCOCCOCCF [PEG6-ML05] | – | – | 4.75 | > 50000 | 2800 ± 3100 | 30 to 45 |
| activated BCRP ATPase | – | COCC(=O)Nc1ccc2ncnc(Nc3cccc(Br)c3)c2c1 [methoxy-Br-ML03, N-{4-[(3-Bromo-phenyl)amino]-quinazoline-6-yl}-2-methoxyacetamide] | – | – | – | > 50000 | 1800 ± 1200 | – |
| activated BCRP ATPase | – | COCC(=O)Nc1ccc2ncnc(Nc3cc(Cl)c(Cl)cc3F)c2c1 [methoxy-ML03] | – | – | – | – | – | 252 |
